# In paper PMC5584945, “Evaluation of robenidine analog NCL195 as a novel broad-spectrum antibacterial agent” (PLoS ONE, 2017):
# Tests used:
# [1] = system: vancomycin-resistant enterococci (VRE); assay: MIC, broth micro-dilution (CLSI); format: cell-based, enterococci (porcine isolates); settings: for MIC50 / MIC90 / MIC: Enterococcus, VRE
# [2] = LogD by gradient HPLC chromatographic method; format: physicochemical; settings: pH 7.4
# Hep G2 = assay: Real-time cell viability, RealTime-Glo MT; format: cell-based, human; settings: 2 or 8 μg/ml, up to 20 h post-treatment
# [3] = S3 Table isolates, absence of FBS
smiles,measurement,setting,value
"C/C(=N\NC(=N)N/N=C(\C)c1ccc(C(C)(C)C)cc1)c1ccc(C(C)(C)C)cc1 [NCL219, (E)-N'-((E)-1-(4-(tert-butyl)phenyl)ethylidene)-2-(1-(4-(tert-butyl)phenyl)ethylidene)hydrazine-1-carboximidhydrazide]",Fold increase of MIC range in the presence of 10% FBS,[1]; 10% FBS versus no FBS,8 fold
same,MIC range,[1]; 20 isolates,1 to 2 µg/mL
same,MIC50,"[1]; S3 Table isolates, 10% FBS",8 µg/mL
same,MIC90,"[1]; S3 Table isolates, 10% FBS",16 µg/mL
same,MIC50,[1]; [3],2 µg/mL
same,MIC90,[1]; [3],2 µg/mL
same,MIC,"[1]; VRE 1 (49 FR), 10% FBS",16 µg/mL
same,MIC,"[1]; VRE 1 (49 FR), absence of FBS",2 µg/mL
same,MIC,"[1]; VRE 2 (53 FR), 10% FBS",8 µg/mL
same,MIC,"[1]; VRE 2 (53 FR), absence of FBS",2 µg/mL
same,MIC,"[1]; VRE 3 (55 FR), 10% FBS",8 µg/mL
same,MIC,"[1]; VRE 3 (55 FR), absence of FBS",2 µg/mL
same,MIC,"[1]; VRE 4 (57 FR), 10% FBS",8 µg/mL
same,MIC,"[1]; VRE 4 (57 FR), absence of FBS",2 µg/mL
same,MIC,"[1]; VRE5 (58 FR), 10% FBS",8 µg/mL
same,MIC,"[1]; VRE5 (58 FR), absence of FBS",2 µg/mL
same,MIC,"[1]; VRE 6 (59 FR), 10% FBS",8 µg/mL
same,MIC,"[1]; VRE 6 (59 FR), absence of FBS",2 µg/mL
same,MIC,"[1]; VRE 7 (270 G), 10% FBS",16 µg/mL
same,MIC,"[1]; VRE 7 (270 G), absence of FBS",2 µg/mL
same,MIC,"[1]; VRE 8 (277 G), 10% FBS",8 µg/mL
same,MIC,"[1]; VRE 8 (277 G), absence of FBS",1 µg/mL
same,MIC,"[1]; VRE 9 (61 FR), 10% FBS",8 µg/mL
same,MIC,"[1]; VRE 9 (61 FR), absence of FBS",1 µg/mL
same,MIC,"[1]; VRE 10 (62 FR), 10% FBS",16 µg/mL
same,MIC,"[1]; VRE 10 (62 FR), absence of FBS",1 µg/mL
same,MIC,"[1]; VRE 11 (284 G), 10% FBS",8 µg/mL
same,MIC,"[1]; VRE 11 (284 G), absence of FBS",2 µg/mL
same,MIC,"[1]; VRE 12 (290 G), 10% FBS",8 µg/mL
same,MIC,"[1]; VRE 12 (290 G), absence of FBS",2 µg/mL
same,MIC,"[1]; VRE 13 (251 G), 10% FBS",8 µg/mL
same,MIC,"[1]; VRE 13 (251 G), absence of FBS",2 µg/mL
same,MIC,"[1]; VRE 14 (252 G), 10% FBS",8 µg/mL
same,MIC,"[1]; VRE 14 (252 G), absence of FBS",2 µg/mL
same,MIC,"[1]; VRE 15 (63 FR), 10% FBS",8 µg/mL
same,MIC,"[1]; VRE 15 (63 FR), absence of FBS",2 µg/mL
same,MIC,"[1]; VRE 16 (60 FR), 10% FBS",8 µg/mL
same,MIC,"[1]; VRE 16 (60 FR), absence of FBS",2 µg/mL
same,MIC,"[1]; VRE 17 (45 FR), 10% FBS",8 µg/mL
same,MIC,"[1]; VRE 17 (45 FR), absence of FBS",2 µg/mL
same,MIC,"[1]; VRE 18 (69 W), 10% FBS",8 µg/mL
same,MIC,"[1]; VRE 18 (69 W), absence of FBS",2 µg/mL
same,MIC,"[1]; VRE 19 (70 W), 10% FBS",8 µg/mL
same,MIC,"[1]; VRE 19 (70 W), absence of FBS",2 µg/mL
same,MIC,"[1]; VRE 20 (78 W), 10% FBS",8 µg/mL
same,MIC,"[1]; VRE 20 (78 W), absence of FBS",2 µg/mL
same,MIC range,"[1]; S3 Table isolates, 10% FBS",8 to 16 µg/mL
same,MIC range,[1]; [3],1 to 2 µg/mL
same,chromatographic logD,[2],> 5.3
same,Effect on cell viability (real-time),Hep G2,had a demonstrable effect on viability at 2 μg/ml
